Experimental data published in ChEMBL document CHEMBL4715887, “Synthesis of novel isoflavone/benzo-δ-sultam hybrids as potential anti-inflammatory drugs” (Bioorg Med Chem Lett, 2021).
Active and inactive are the calls of the source. The calls are words filed in the database; no cut-off is given here.

What was measured:
[1] = tested on: BV-2; experiment: Cytotoxicity against mouse BV2 cells assessed as reduction in cell viability at 20 uM after 24 hrs by XTT assay; type: cell-based; conditions: bv-2, 24 h
[2] = tested on: BV-2; experiment: Antiinflammatory activity in mouse BV2 cells assessed as reduction in LPS-induced NO-production at 20 uM after 24 hrs by Griess reagent based assay relative to control; type: functional
[3] = tested on: BV-2; experiment: Antiinflammatory activity in mouse BV2 cells assessed as LPS-induced NO-production at 20 uM after 24 hrs by Griess reagent based assay relative to control; type: functional
[4] = tested on: BV-2; experiment: Antiinflammatory activity in mouse BV2 cells assessed as LPS-induced TNFalpha-production at 20 uM after 24 hrs by Griess reagent based assay relative to control; type: functional
[5] = Cytotoxicity against mouse BV2 cells assessed as cell viability at 20 uM after 24 hrs by XTT assay relative to control; type: cell-based, BV-2; conditions: read-out: Activity

In the case of `CNS(=O)(=O)c1ccccc1I`, the Activity [1] is reported as “Non-Toxic”.
In the case of `COc1ccc(CNS(=O)(=O)c2ccccc2I)cc1`, the Activity [1] is reported as “Non-Toxic”.
With `COc1ccc(CNS(=O)(=O)c2ccccc2C#Cc2coc3cc(OC)ccc3c2=O)cc1` the inhibition [2] was “Active”.
With `COc1ccc2c(=O)c(-c3ccc(N)cc3)coc2c1` the Activity [1] was “Non-Toxic”, the Activity [3] was 42% and the Activity [4] was “Active”.
In the case of `O=c1c(-c2ccc(O)cc2)coc2cc(O)ccc12` [DAIDZEIN], the viability at 24 h, 20 µM [5] is reported as greater than 80%, the Activity [1] is reported as “Non-Toxic” and the inhibition at 20 µM [2] is reported as 35%.
With `O=S(=O)(Nc1ccccc1)c1ccccc1Br` the Activity [1] was “Non-Toxic”.
`C#Cc1coc2cc(OC)ccc2c1=O` showed a viability at 24 h, 20 µM [5] of 49%.
For `COc1ccc(-c2coc3cc(O)cc(O)c3c2=O)cc1` [BIOCHANIN], the viability at 24 h, 20 µM [5] was 76%, the Activity [1] was “Non-Toxic” and the inhibition at 20 µM [2] was 41%. It also gave an Activity [4] of 33%.
With `COc1ccc(CN2C(c3coc4cc(OC)ccc4c3=O)=Cc3ccccc3S2(=O)=O)cc1` the Activity [1] was “Non-Toxic”, the Activity [3] was 41% and the inhibition [2] was “Active”. It also gave an Activity [4] of 34%.
In the case of `CNS(=O)(=O)c1ccccc1Br`, the Activity [1] is reported as “Non-Toxic”.
With `O=S(=O)(Nc1ccccc1)c1ccccc1I` the Activity [1] was “Non-Toxic”.
In the case of `COc1ccc2c(=O)c(-c3ccc(N4C(c5ccccc5)=Cc5ccccc5S4(=O)=O)cc3)coc2c1`, the Activity [1] is reported as “Toxic” and the inhibition [2] is reported as “Active”.
For `COc1ccc2c(=O)c(I)coc2c1`, the Activity [1] was “Non-Toxic”, the Activity [3] was 21% and the Activity [4] was 26%.
For `COc1ccc2c(=O)c(C3=Cc4ccccc4S(=O)(=O)N3)coc2c1`, the Activity [1] was “Toxic”, the Activity [3] was 24% and the inhibition [2] was “Active”.
In the case of `COc1ccc2c(=O)c(C3=Cc4ccccc4S(=O)(=O)N3c3ccccc3)coc2c1`, the Activity [1] is reported as “Non-Toxic” and the inhibition [2] is reported as “Active”.
In the case of `COc1ccc2c(=O)c(-c3ccc(NS(=O)(=O)c4ccccc4Br)cc3)coc2c1`, the Activity [1] is reported as “Non-Toxic”, the Activity [3] is reported as 26% and the inhibition [2] is reported as “Active”.
With `COc1ccc2c(=O)c(C#Cc3ccccc3S(=O)(=O)Nc3ccccc3)coc2c1` the Activity [1] was “Toxic” and the inhibition [2] was “Active”.
In the case of `COc1ccc2c(=O)c(-c3ccc(NS(=O)(=O)c4ccccc4C#Cc4ccccc4)cc3)coc2c1`, the Activity [1] is reported as “Non-Toxic” and the inhibition [2] is reported as “Active”.
In the case of `COc1ccc2c(=O)c(-c3ccc([N+](=O)[O-])cc3)coc2c1`, the Activity [1] is reported as “Non-Toxic” and the inhibition [2] is reported as “inactive”.
In the case of `COc1ccc2c(=O)c(C#C[Si](C)(C)C)coc2c1`, the Activity [1] is reported as “Non-Toxic”, the Activity [3] is reported as 21% and the inhibition [2] is reported as “Active”.
With `COc1ccc2c(=O)c(C3=Cc4ccccc4S(=O)(=O)N3C)coc2c1` the Activity [1] was “Non-Toxic” and the inhibition [2] was “Active”.
